# Experimental data as given in US9586951B2 (FUJIFILM Corporation, priority 2013, dated 2017).
# Counter-ions that a name gives are not always drawn.
# Biological target: T1, ATM (Homo sapiens, UniProt Q13315)
# T1 construct: detecting phosphorylation of Chk2 in a human non-small cell lung cancer cell line NCI-H460 (ATCC company); host or cells: NCI-H460 human non-small cell lung cancer cells
# Experiment: ATM inhibition test (phosphorylation of Chk2 generated by ionizing radiation, AlphaScreen SureFire)
# Format: cell-based
# Conditions: phosphorylated Chk2 in NCI-H460 cells, ionizing radiation 8Gy, 1 hour after test compound treatment; read-out: ATM inhibitory activity
# How it was run: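 NCI-H460 cells treated with compound for 1 hour, then irradiated with 8Gy and incubated 1 hour at 37° C. Phospho-Chk2 measured by AlphaScreen SureFire. Inhibition ratio calculated relative to untreated irradiated and non-irradiated wells.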
# T1 sequence (Q13315 whole entry): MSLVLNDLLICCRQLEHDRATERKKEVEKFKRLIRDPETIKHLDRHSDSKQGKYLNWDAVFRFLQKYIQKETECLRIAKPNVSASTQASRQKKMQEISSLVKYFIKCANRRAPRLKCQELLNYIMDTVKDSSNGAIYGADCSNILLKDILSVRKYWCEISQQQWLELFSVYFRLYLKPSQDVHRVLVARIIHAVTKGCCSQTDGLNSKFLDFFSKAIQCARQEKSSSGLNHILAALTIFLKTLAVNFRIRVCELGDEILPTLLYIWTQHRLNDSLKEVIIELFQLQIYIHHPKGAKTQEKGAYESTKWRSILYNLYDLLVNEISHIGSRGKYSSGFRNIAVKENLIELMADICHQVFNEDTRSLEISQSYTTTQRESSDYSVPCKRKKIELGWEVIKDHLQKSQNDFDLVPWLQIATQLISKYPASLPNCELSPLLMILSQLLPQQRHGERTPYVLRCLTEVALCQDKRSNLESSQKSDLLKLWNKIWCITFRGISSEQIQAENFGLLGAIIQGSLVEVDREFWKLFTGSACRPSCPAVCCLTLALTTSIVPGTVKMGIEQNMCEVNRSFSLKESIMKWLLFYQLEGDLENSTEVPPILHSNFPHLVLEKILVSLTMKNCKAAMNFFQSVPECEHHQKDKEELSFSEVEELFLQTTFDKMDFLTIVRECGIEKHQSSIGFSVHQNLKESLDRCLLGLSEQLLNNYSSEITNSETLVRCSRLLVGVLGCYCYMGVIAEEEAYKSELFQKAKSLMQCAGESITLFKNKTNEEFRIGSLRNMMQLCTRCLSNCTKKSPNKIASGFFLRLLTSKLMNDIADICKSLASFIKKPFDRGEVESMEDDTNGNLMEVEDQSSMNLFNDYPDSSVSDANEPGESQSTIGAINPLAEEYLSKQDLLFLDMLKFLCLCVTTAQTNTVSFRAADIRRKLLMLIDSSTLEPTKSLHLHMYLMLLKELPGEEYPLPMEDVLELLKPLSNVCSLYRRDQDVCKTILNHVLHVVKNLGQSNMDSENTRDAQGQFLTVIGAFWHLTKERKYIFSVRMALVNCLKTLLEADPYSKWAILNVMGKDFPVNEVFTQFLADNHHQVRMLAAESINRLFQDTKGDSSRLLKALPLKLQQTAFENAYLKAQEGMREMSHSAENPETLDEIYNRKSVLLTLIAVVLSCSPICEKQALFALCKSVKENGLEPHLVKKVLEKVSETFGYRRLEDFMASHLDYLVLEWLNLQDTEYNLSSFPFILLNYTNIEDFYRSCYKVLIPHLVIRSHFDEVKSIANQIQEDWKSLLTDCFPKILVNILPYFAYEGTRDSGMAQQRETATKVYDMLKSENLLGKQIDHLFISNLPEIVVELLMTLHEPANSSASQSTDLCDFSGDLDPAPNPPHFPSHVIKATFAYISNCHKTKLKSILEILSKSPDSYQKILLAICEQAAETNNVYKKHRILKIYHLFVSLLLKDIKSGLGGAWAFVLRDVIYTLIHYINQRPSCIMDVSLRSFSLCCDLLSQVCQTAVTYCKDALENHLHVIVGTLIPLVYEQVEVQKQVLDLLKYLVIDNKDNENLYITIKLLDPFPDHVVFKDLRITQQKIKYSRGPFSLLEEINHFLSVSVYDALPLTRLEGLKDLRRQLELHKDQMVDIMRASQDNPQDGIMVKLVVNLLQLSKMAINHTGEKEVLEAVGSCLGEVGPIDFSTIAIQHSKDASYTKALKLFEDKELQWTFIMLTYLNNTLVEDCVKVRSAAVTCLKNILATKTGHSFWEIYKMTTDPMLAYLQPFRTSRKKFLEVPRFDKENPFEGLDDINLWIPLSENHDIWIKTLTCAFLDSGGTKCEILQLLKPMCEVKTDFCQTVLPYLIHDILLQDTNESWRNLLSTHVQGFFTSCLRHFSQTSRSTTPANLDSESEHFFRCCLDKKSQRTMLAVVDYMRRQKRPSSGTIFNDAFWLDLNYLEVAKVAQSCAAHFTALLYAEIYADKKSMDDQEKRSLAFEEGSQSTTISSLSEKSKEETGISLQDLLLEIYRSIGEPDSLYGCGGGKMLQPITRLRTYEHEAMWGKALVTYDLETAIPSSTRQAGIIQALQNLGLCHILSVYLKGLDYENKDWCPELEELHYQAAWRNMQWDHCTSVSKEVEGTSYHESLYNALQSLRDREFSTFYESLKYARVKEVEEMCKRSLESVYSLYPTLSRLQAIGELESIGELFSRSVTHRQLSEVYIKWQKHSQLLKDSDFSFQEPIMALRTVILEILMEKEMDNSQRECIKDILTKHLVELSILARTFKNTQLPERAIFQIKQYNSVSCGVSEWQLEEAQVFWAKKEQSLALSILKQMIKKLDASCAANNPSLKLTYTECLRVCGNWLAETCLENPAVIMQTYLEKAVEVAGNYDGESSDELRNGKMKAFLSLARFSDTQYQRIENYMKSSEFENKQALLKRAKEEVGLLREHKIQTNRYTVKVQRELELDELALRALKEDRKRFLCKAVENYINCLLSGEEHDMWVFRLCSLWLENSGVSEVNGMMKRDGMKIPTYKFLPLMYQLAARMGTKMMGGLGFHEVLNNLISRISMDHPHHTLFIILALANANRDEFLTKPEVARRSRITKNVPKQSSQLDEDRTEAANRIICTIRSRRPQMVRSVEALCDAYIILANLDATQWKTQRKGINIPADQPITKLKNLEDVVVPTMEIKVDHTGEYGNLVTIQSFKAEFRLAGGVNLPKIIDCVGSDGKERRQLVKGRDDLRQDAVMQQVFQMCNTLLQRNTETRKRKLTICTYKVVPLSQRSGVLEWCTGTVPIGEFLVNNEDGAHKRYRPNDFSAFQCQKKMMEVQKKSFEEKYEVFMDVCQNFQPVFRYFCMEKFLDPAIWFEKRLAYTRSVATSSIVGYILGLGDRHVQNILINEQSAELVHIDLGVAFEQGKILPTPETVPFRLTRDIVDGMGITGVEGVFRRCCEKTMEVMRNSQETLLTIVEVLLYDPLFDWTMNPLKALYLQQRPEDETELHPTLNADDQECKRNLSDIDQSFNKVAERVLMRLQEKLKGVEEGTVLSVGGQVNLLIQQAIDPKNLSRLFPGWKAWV
row,SMILES,IC50
1,"CN1CCCC(Nc2ccc3c(c2)Cc2cccc(-c4cc(N5CCOCC5)cc(=O)[nH]4)c2O3)C1 (stereo not shown) [Example 2-7-1, 6-(7-((1-methylpiperidin-3-yl)amino)-9H-xanthen-4-yl)-4-morpholinopyridin-2(1H)-one]",500 to 2000 nM
2,"O=c1cc(N2CCOCC2)cc(-c2cccc3c2Oc2ccc(NC4CCN(c5ccncc5)CC4)cc2C3)[nH]1 [Example 2-2-22, 4-Morpholino-6-(7-((1-(pyridin-4-yl)piperidin-4-yl)amino)-9H-xanthen-4-yl) pyridin-2(1H)-one]",< 100 nM
3,"O=c1cc(N2CCOCC2)cc(-c2cccc3c2Oc2ccc(NCc4ccsc4)cc2C3)[nH]1 [Example 2-14-35, 4-Morpholino-6-(7-((thiophen-3-ylmethyl)amino)-9H-xanthen-4-yl) pyridin-2(1H)-one]",100 to 500 nM
4,"CCC(Nc1ccc2c(c1)Sc1cccc(-c3cc(N4CCOCC4)cc(=O)[nH]3)c1S2)c1cncc(OC)c1 (stereo not shown) [Example 1-12-17, 6-(7-((1-(5-Methoxypyridin-3-yl)propyl)amino)thianthren-1-yl)-4-morpholino pyridin-2(1H)-one]",100 to 500 nM
5,"CCCCN1CCC(Nc2ccc3c(c2)Cc2cccc(-c4cc(N5CCOCC5)cc(=O)[nH]4)c2O3)CC1C (stereo not shown) [Example 2-19-2, 6-(7-((1-Butyl-2-methylpiperidin-4-yl)amino)-9H-xanthen-4-yl)-4-morpholinopyridin-2(1H)-one]",500 to 2000 nM
6,"CCOC(=O)C(C)Nc1ccc2c(c1)Sc1cccc(-c3cc(N4CCOCC4)cc(=O)[nH]3)c1S2 (stereo not shown) [Example 1-12-55, Ethyl 2-((6-(4-morpholino-6-oxo-1,6-dihydropyridin-2-yl)thianthren-2-yl)amino) propanoate]",100 to 500 nM
7,"O=c1cc(N2CCOCC2)cc(-c2cccc3c2Oc2ccc(NC4CCN(Cc5ccccc5)CC4)cc2C3)[nH]1 [Example 2-28-24, 6-(7-((1-Benzylpiperidin-4-yl)amino)-9H-xanthen-4-yl)-4-morpholino pyridin-2 (1H)-one]",100 to 500 nM
8,"O=c1cc(N2CCOCC2)cc(-c2cccc3c2Sc2ccc(NCCN4CCC(F)(F)CC4)cc2S3)[nH]1 [Example 1-10-1, 6-(7-((2-(4,4-Difluoropiperidin-1-yl)ethyl)amino)thianthren-1-yl)-4-morpholinopyridin-2(1H)-one]",100 to 500 nM
9,"CC(Nc1ccc2c(c1)Sc1cccc(-c3cc(N4CCOCC4)cc(=O)[nH]3)c1S2)c1nccc(CO)n1 (stereo not shown) [Example 1-12-86, 6-(7-((1-(4-(Hydroxymethyl)pyrimidin-2-yl)ethyl)amino)thianthren-1-yl)-4-morpholino pyridin-2(1H)-one]",100 to 500 nM
10,"O=c1cc(N2CCOCC2)cc(-c2cccc3c2Sc2ccc(NC4CCCN(C5CCCCC5)C4)cc2S3)[nH]1 (stereo not shown) [Example 1-24-1, 6-(7-((1-Cyclohexylpiperidin-3-yl)amino)thianthren-1-yl)-4-morpholinopyridin-2(1H)-one]",100 to 500 nM
11,O=C(CNc1ccc2c(c1)Sc1cccc(-c3cc(N4CCOCC4)cc(=O)[nH]3)c1S2)N1CCCCC1 [Example 1-18-2],100 to 500 nM
12,"CCN(CC)C(=O)CN1CCN(c2cccc(CNc3ccc4c(c3)Sc3cccc(-c5cc(N6CCOCC6)cc(=O)[nH]5)c3S4)n2)CC1 [Example 1-12-34, N,N-Diethyl-2-(4-(6-(((6-(4-morpholino-6-oxo-1,6-dihydro-pyridin-2-yl)thianthren-2-yl)amino)methyl)pyridin-2-yl)piperazin-1-yl) acetamide]",500 to 2000 nM
13,"CCN(C)CCC(Nc1ccc2c(c1)Sc1cccc(-c3cc(N4CCOCC4)cc(=O)[nH]3)c1S2)c1ccc(C)cn1 (single isomer, unassigned) [Example 1-51-9, 6-(7-((3-(Ethyl(methyl)amino)-1-(5-methylpyridin-2-yl)propyl)amino)thianthren-1-yl)-4-morpholino pyridin-2 (1H)-one]",< 100 nM
14,"COc1ncc(C(C)Nc2ccc3c(c2)Cc2cccc(-c4cc(N5CCOCC5)cc(=O)[nH]4)c2O3)cn1 (stereo not shown) [Example 2-14-55, 6-(7-((1-(2-Methoxypyrimidin-5-yl)ethyl)amino)-9H-xanthen-4-yl)-4-morpholino pyridin-2 (1H)-one]",100 to 500 nM
15,"COc1ncc(CN2CCC(Nc3ccc4c(c3)Cc3cccc(-c5cc(N6CCOCC6)cc(=O)[nH]5)c3O4)CC2)cn1 [Example 2-28-14, 6-(7-((1-((2-Methoxypyrimidin-5-yl)methyl)piperidin-4-yl)amino)-9H-xanthen-4-yl)-4-morpholino pyridin-2(1H)-one]",100 to 500 nM
16,"CC(C)(C)NCCNc1ccc2c(c1)Sc1cccc(-c3cc(N4CCOCC4)cc(=O)[nH]3)c1S2 [Example 1-10-13, 6-(7-((2-(tert-Butylamino)ethyl)amino)thianthren-1-yl)-4-morpholino pyridin-2 (1H)-one]",500 to 2000 nM
17,"COc1ccc(CN2CCC(Nc3ccc4c(c3)Cc3cccc(-c5cc(N6CCOCC6)cc(=O)[nH]5)c3O4)CC2)cn1 [Example 2-28-6, 6-(7-((1-((6-Methoxypyridin-3-yl)methyl)piperidin-4-yl)amino)-9H-xanthen-4-yl)-4-morpholino pyridin-2(1H)-one]",100 to 500 nM
18,"O=c1cc(N2CCOCC2)cc(-c2cccc3c2Oc2ccc(NC4CCCN(CCc5ccccc5)CC4)cc2C3)[nH]1 (stereo not shown) [Example 2-19-5, 4-Morpholino-6-(7-((1-phenethylazepan-4-yl)amino)-9H-xanthen-4-yl)pyridin-2(1H)-one]",100 to 500 nM
19,"O=C(CNc1ccc2c(c1)Sc1cccc(-c3cc(N4CCOCC4)cc(=O)[nH]3)c1S2)N1CCCC1 [Example 1-18-1, 4-morpholino-6-(7-((2-oxo-2-(pyrrolidin-1-yl)ethyl)amino)thianthren-1-yl)pyridin-2(1H)-one]",100 to 500 nM
20,"CC(Nc1ccc2c(c1)Sc1cccc(-c3cc(N4CCOCC4)cc(=O)[nH]3)c1S2)c1ncc(CN2CCCC2)cn1 (stereo not shown) [Example 1-12-94, 4-Morpholino-6-(7-((1-(5-(pyrrolidin-1-ylmethyl)pyrimidin-2-yl)ethyl)amino)thianthren-1-yl)pyridin-2 (1H)-one]",100 to 500 nM
21,"CNCCC(Nc1ccc2c(c1)Sc1cccc(-c3cc(N4CCOCC4)cc(=O)[nH]3)c1S2)c1cnc(C)cn1 (stereo not shown) [Example 1-20-11, 6-(7-((3-(Methylamino)-1-(5-methylpyrazin-2-yl)propyl)amino)thianthren-1-yl)-4-morpholino pyridin-2 (1H)-one]",500 to 2000 nM
22,"O=c1cc(N2CCOCC2)cc(-c2cccc3c2Sc2ccc(NCCN4CCS(=O)(=O)CC4)cc2S3)[nH]1 [Example 1-16-8, 6-(7-((2-(1,1-Dioxidethiomorpholino)ethyl)amino)thianthren-1-yl)-4-morpholinopyridin-2(1H)-one]",100 to 500 nM
23,"Cc1ccc(C(Nc2ccc3c(c2)Sc2cccc(-c4cc(N5CCOCC5)cc(=O)[nH]4)c2S3)[C@@H]2CN(C)CCO2)nc1 (single isomer, unassigned) [Example 1-56-11]",< 100 nM

# The next lines start with the values.
row,IC50,SMILES
1,100 to 500 nM,"COc1cncc(CNc2ccc3c(c2)Cc2cc(C)cc(-c4cc(N5CCOCC5)cc(=O)[nH]4)c2O3)c1 [Example 2-49-2, 6-(7-(((5-Methoxypyridin-3-yl)methyl)amino)-2-methyl-9H-xanthen-4-yl)-4-morpholinopyridin-2(1H)-one]"
2,100 to 500 nM,"COC(=O)CCCCN1CCC(Nc2ccc3c(c2)Cc2cccc(-c4cc(N5CCOCC5)cc(=O)[nH]4)c2O3)CC1 [Example 2-30-16, Methyl 5-(4-((5-(4-morpholino-6-oxo-1,6-dihydropyridin-2-yl)-9H-xanthen-2-yl)amino)piperidin-1-yl)pentanoate]"
3,< 100 nM,"Cc1ccc(C(Nc2ccc3c(c2)Cc2cccc(-c4cc(N5CCOCC5)cc(=O)[nH]4)c2O3)[C@H]2CN(C)CCO2)nc1 (stereo partly drawn) [Example 2-67, 6-(7-((((R)-4-methylmorpholin-2-yl)(5-methylpyridin-2-yl)methyl)amino)-9H-xanthen-4-yl)-4-morpholinopyridin-2(1H)-one]"
4,100 to 500 nM,"COc1ccc(C2c3cc(N)ccc3Oc3c2ccnc3-c2cc(N3CCOCC3)cc(=O)[nH]2)cc1 (stereo not shown) [Example 2-66, Hydrochloride of 6-(7-amino-5-(4-methoxyphenyl)-5H-chromeno[2,3-c]pyridin-1-yl)-4-morpholinopyridin-2(1H)-one]"
5,100 to 500 nM,"CC(CN1CCN(C)CC1)Nc1ccc2c(c1)Sc1cccc(-c3cc(=O)cc(N4CCOCC4)o3)c1S2 (stereo not shown) [Example 11-4, 2-(7-((1-(4-Methylpiperazin-1-yl)propan-2-yl)amino)thianthren-1-yl)-6-morpholino-4H-pyran-4-one]"
6,500 to 2000 nM,"Nc1ccc2c(c1)Cc1c(F)ccc(-c3cc(N4CCOCC4)cc(=O)[nH]3)c1O2 [Example 2-43, 6-(7-Amino-1-fluoro-9H-xanthen-4-yl)-4-morpholinopyridin-2(1H)-one]"
7,100 to 500 nM,"O=c1cc(N2CCOCC2)cc(-c2cccc3c2Oc2ccc(NCc4cncc(C5CC5)c4)cc2S3)[nH]1 [Example 4-8-7, 6-(8-(((5-Cyclopropylpyridin-3-yl)methyl)amino)phenoxathiin-4-yl)-4-morpholino pyridin-2(1H)-one]"
8,100 to 500 nM,"O=c1cc(N2CCOCC2)cc(-c2cccc3c2Oc2ccc(NCc4cccc(C5CC5)n4)cc2S3)[nH]1 [Example 4-4-21, 6-(8-(((6-Cyclopropylpyridin-2-yl)methyl)amino)phenoxathiin-4-yl)-4-morpholino pyrdin-2(1H)-one]"
9,100 to 500 nM,"O=c1cc(N2CCOCC2)cc(-c2cccc3c2Oc2ccc(NC4CCN(CCc5ccccc5)CC4)cc2C3)[nH]1 [Example 2-28-29, 4-Morpholino-6-(7-((1-phenethylpiperidin-4-yl)amino)-9H-xanthen-4-yl) pyridin-2(1H)-one]"
10,500 to 2000 nM,"CC(CN1CCOCC1)C(=O)Nc1ccc2c(c1)Sc1cccc(-c3cc(N4CCOCC4)cc(=O)[nH]3)c1S2 (stereo not shown) [Example 8-3, 2-Methyl-3-morpholino-N-(6-(4-morpholino-6-oxo-1,6-dihydropyridin-2-yl)thianthren-2-yl)propanamide]"
11,500 to 2000 nM,"O=c1cc(N2CCOCC2)cc(-c2cccc3c2Oc2ccccc2S3)[nH]1 [Example 4-12, 4-Morpholino-6-(phenoxathiin-4-yl)pyridin-2(1H)-one]"
